Experimental data published in PMC5218480 (PLoS ONE, 2017).

Test system: MV-4-11 cells
Test: Gene expression microarray analysis (Affymetrix PrimeView) and GSEA
Type: cell-based, human
Parameters: RFU PODN (11730768_x_at) / Fold change /veh PODN (11730768_x_at) / RFU LINC00158 (11744669_a_at) / Fold change /veh LINC00158 (11744669_a_at) / RFU DUSP10 (11751237_a_at) / Fold change /veh DUSP10 (11751237_a_at) / RFU ID3 (11757404_x_at) / Fold change /veh ID3 (11757404_x_at) / RFU PLEKHG5 (11737974_s_at) / Fold change /veh PLEKHG5 (11737974_s_at) / RFU LRRC4B (11730491_at) / Fold change /veh LRRC4B (11730491_at) / RFU GIMAP4 (11747438_a_at) / Fold change /veh GIMAP4 (11747438_a_at) / RFU KRT8 (11758183_x_at) / Fold change /veh KRT8 (11758183_x_at) / RFU CNN1 (11734310_a_at) / Fold change /veh CNN1 (11734310_a_at) / RFU VPS37D (11726825_at) / Fold change /veh VPS37D (11726825_at) / RFU C10orf10 (11716522_x_at) / Fold change /veh C10orf10 (11716522_x_at) / RFU KIR2DL2 /// KIR2DL4 /// KIR2DL5A /// KIR2DL5B /// KIR2DS1 /// KIR2DS2 /// KIR2DS3 /// KIR2DS4 /// KIR3DL3 /// KIR3DL3 /// KIR3DS1 (11738374_at) / Fold change /veh KIR2DL2 /// KIR2DL4 /// KIR2DL5A /// KIR2DL5B /// KIR2DS1 /// KIR2DS2 /// KIR2DS3 /// KIR2DS4 /// KIR3DL3 /// KIR3DL3 /// KIR3DS1 (11738374_at) / RFU C1QL1 (11718748_at) / Fold change /veh C1QL1 (11718748_at) / RFU TMPRSS4 (11747572_a_at) / Fold change /veh TMPRSS4 (11747572_a_at) / RFU HAMP (11756126_x_at) / Fold change /veh HAMP (11756126_x_at) / RFU RNFT2 (11725882_a_at) / Fold change /veh RNFT2 (11725882_a_at) / RFU NR4A2 (11747474_a_at) / Fold change /veh NR4A2 (11747474_a_at) / RFU ABCC12 (11746883_a_at) / Fold change /veh ABCC12 (11746883_a_at) / RFU TMEM136 (11760407_x_at) / Fold change /veh TMEM136 (11760407_x_at) / RFU CLDN22 /// WWC2 (11732394_at) / Fold change /veh CLDN22 /// WWC2 (11732394_at) / RFU HLA-DPB1 (11760878_x_at) / Fold change /veh HLA-DPB1 (11760878_x_at) / RFU SPINT1 (11716480_a_at) / Fold change /veh SPINT1 (11716480_a_at) / RFU GAP43 (11754022_s_at) / Fold change /veh GAP43 (11754022_s_at) / RFU A4GNT (11735810_at) / Fold change /veh A4GNT (11735810_at) / RFU PRB3 (11715151_x_at) / Fold change /veh PRB3 (11715151_x_at) / RFU TUBB4B (11761932_at) / Fold change /veh TUBB4B (11761932_at) / RFU CAPN14 (11732068_a_at) / Fold change /veh CAPN14 (11732068_a_at) / RFU TMCC2 (11721928_a_at) / Fold change /veh TMCC2 (11721928_a_at) / RFU IRGQ (11745062_a_at) / Fold change /veh IRGQ (11745062_a_at) / RFU FAM174B (11720279_a_at) / Fold change /veh FAM174B (11720279_a_at) / RFU TMPRSS4 (11748680_a_at) / Fold change /veh TMPRSS4 (11748680_a_at) / RFU FAM212B (11763350_a_at) / Fold change /veh FAM212B (11763350_a_at) / RFU PLEKHG5 (11743358_a_at) / Fold change /veh PLEKHG5 (11743358_a_at) / RFU ZSCAN30 (11745921_a_at) / Fold change /veh ZSCAN30 (11745921_a_at) / RFU CMKLR1 (11741424_a_at) / Fold change /veh CMKLR1 (11741424_a_at) / RFU LOC101060620 /// MAPK8IP1 (11723275_at) / Fold change /veh LOC101060620 /// MAPK8IP1 (11723275_at) / RFU SPTSSB (11747773_x_at) / Fold change /veh SPTSSB (11747773_x_at) / RFU PRSS12 (11739890_at) / Fold change /veh PRSS12 (11739890_at) / RFU BIN1 (11741810_x_at) / Fold change /veh BIN1 (11741810_x_at) / RFU WNT11 (11732464_a_at) / Fold change /veh WNT11 (11732464_a_at) / RFU C10orf10 (11716521_a_at) / Fold change /veh C10orf10 (11716521_a_at) / RFU C5orf56 (11738089_at) / Fold change /veh C5orf56 (11738089_at) / RFU CYB561 (11721691_x_at) / Fold change /veh CYB561 (11721691_x_at) / RFU ANKRD19P (11752326_a_at) / Fold change /veh ANKRD19P (11752326_a_at) / RFU OR2T12 /// OR2T33 /// OR2T8 (11738714_s_at) / Fold change /veh OR2T12 /// OR2T33 /// OR2T8 (11738714_s_at) / RFU VCAN (11748164_a_at) / Fold change /veh VCAN (11748164_a_at) / RFU JSRP1 (11732532_at) / Fold change /veh JSRP1 (11732532_at) / RFU KRTAP10-11 (11738290_x_at) / Fold change /veh KRTAP10-11 (11738290_x_at) / RFU MYO3A (11730013_a_at) / Fold change /veh MYO3A (11730013_a_at) / RFU EBF3 (11725865_a_at) / Fold change /veh EBF3 (11725865_a_at) / RFU CAMK2N1 (11719241_x_at) / Fold change /veh CAMK2N1 (11719241_x_at) / RFU C5orf56 (11738088_a_at) / Fold change /veh C5orf56 (11738088_a_at) / RFU OLFML3 (11715873_a_at) / Fold change /veh OLFML3 (11715873_a_at) / RFU LOC100653217 /// NTM (11731650_a_at) / Fold change /veh LOC100653217 /// NTM (11731650_a_at) / RFU MAPK11 (11762145_a_at) / Fold change /veh MAPK11 (11762145_a_at) / RFU FIZ1 (11724087_x_at) / Fold change /veh FIZ1 (11724087_x_at) / RFU OASL (11726364_x_at) / Fold change /veh OASL (11726364_x_at) / RFU SOX15 (11748057_x_at) / Fold change /veh SOX15 (11748057_x_at) / RFU CD79A (11719716_a_at) / Fold change /veh CD79A (11719716_a_at) / RFU HIST1H1D (11736915_at) / Fold change /veh HIST1H1D (11736915_at) / RFU CASKIN2 (11723855_a_at) / Fold change /veh CASKIN2 (11723855_a_at) / RFU LOC730098 (11760151_x_at) / Fold change /veh LOC730098 (11760151_x_at) / RFU OR4N2 (11742367_at) / Fold change /veh OR4N2 (11742367_at) / RFU PRRT2 (11749266_a_at) / Fold change /veh PRRT2 (11749266_a_at) / RFU SNX32 (11753110_a_at) / Fold change /veh SNX32 (11753110_a_at) / RFU CDHR5 (11726645_a_at) / Fold change /veh CDHR5 (11726645_a_at) / RFU RCAN1 (11760418_a_at) / Fold change /veh RCAN1 (11760418_a_at) / RFU FAM167A (11723789_a_at) / Fold change /veh FAM167A (11723789_a_at) / RFU FAM26E (11764081_at) / Fold change /veh FAM26E (11764081_at) / RFU ISYNA1 (11749810_s_at) / Fold change /veh ISYNA1 (11749810_s_at) / RFU ACY1 (11761880_at) / Fold change /veh ACY1 (11761880_at) / RFU 11764098_at / Fold change /veh 11764098_at / RFU SAMD14 (11745864_x_at) / Fold change /veh SAMD14 (11745864_x_at) / RFU NPB (11741838_a_at) / Fold change /veh NPB (11741838_a_at) / RFU TMPRSS6 (11731388_a_at) / Fold change /veh TMPRSS6 (11731388_a_at) / RFU KRTAP10-2 (11738614_at) / Fold change /veh KRTAP10-2 (11738614_at) / RFU ARHGAP8 /// PRR5-ARHGAP8 (11727945_x_at) / Fold change /veh ARHGAP8 /// PRR5-ARHGAP8 (11727945_x_at) / RFU KRTAP5-7 /// NADSYN1 (11734609_at) / Fold change /veh KRTAP5-7 /// NADSYN1 (11734609_at) / RFU RASL12 (11751679_a_at) / Fold change /veh RASL12 (11751679_a_at) / RFU CDKN2B (11736163_a_at) / Fold change /veh CDKN2B (11736163_a_at) / RFU PRF1 (11729649_at) / Fold change /veh PRF1 (11729649_at) / RFU, ZNF638 /// ZNF638-IT1 / Fold change vs veh, ZNF638 /// ZNF638-IT1 / RFU, PANK3 / Fold change vs veh, PANK3 / RFU, SH3YL1 / Fold change vs veh, SH3YL1 / RFU, ZEB2 / Fold change vs veh, ZEB2 / RFU, NRIP1 / Fold change vs veh, NRIP1 / RFU, PTTG1IP / Fold change vs veh, PTTG1IP / RFU, CAPN2 / Fold change vs veh, CAPN2 / RFU, MED14 / Fold change vs veh, MED14 / RFU, SNORA58 / Fold change vs veh, SNORA58 / RFU, C1orf63 / Fold change vs veh, C1orf63 / RFU, LRRFIP1 / Fold change vs veh, LRRFIP1 / RFU, NDUFAF7 / Fold change vs veh, NDUFAF7 / RFU, SLC12A2 / Fold change vs veh, SLC12A2 / RFU, IBTK / Fold change vs veh, IBTK / RFU, ESF1 / Fold change vs veh, ESF1 / Fold change vs veh, TMEM50B / RFU, TAOK1 / Fold change vs veh, TAOK1 / RFU, ACBD3 / Fold change vs veh, ACBD3 / RFU, TMA16 / Fold change vs veh, TMA16 / RFU, RWDD3 / Fold change vs veh, RWDD3 / RFU, BCAT1 / Fold change vs veh, BCAT1 / RFU, EDEM3 / Fold change vs veh, EDEM3 / RFU, TMEM33 / Fold change vs veh, TMEM33 / RFU, WDR75 / Fold change vs veh, WDR75 / RFU, AHCTF1 / Fold change vs veh, AHCTF1 / RFU, TFRC / Fold change vs veh, TFRC / RFU, ZDHHC17 / Fold change vs veh, ZDHHC17 / RFU, NOM1 / Fold change vs veh, NOM1 / RFU, ARL8B / Fold change vs veh, ARL8B / RFU, ZBTB11 / Fold change vs veh, ZBTB11 / RFU, TAMM41 / Fold change vs veh, TAMM41 / RFU, KIAA1704 /// LOC100996395 / Fold change vs veh, KIAA1704 /// LOC100996395 / RFU, ING1 / Fold change vs veh, ING1 / RFU, TRMT61B / Fold change vs veh, TRMT61B / RFU, FUBP3 / Fold change vs veh, FUBP3 / RFU, TP53 / Fold change vs veh, TP53 / RFU, TNKS2 / Fold change vs veh, TNKS2 / RFU, ZFP14 / Fold change vs veh, ZFP14 / RFU, ACTR2 / Fold change vs veh, ACTR2 / RFU, PPP3R1 / Fold change vs veh, PPP3R1 / RFU, PIK3R1 / Fold change vs veh, PIK3R1 / RFU, HNRNPA1 / Fold change vs veh, HNRNPA1 / RFU, RNF170 / Fold change vs veh, RNF170 / RFU, ZNF28 / Fold change vs veh, ZNF28 / RFU, RNGTT / Fold change vs veh, RNGTT / RFU, OGT / Fold change vs veh, OGT / RFU, BRD1 / Fold change vs veh, BRD1 / RFU, MARS / Fold change vs veh, MARS / RFU, ZNF655 / Fold change vs veh, ZNF655 / RFU, FAHD1 / Fold change vs veh, FAHD1 / RFU, BDP1 / Fold change vs veh, BDP1 / RFU, LRRCC1 / Fold change vs veh, LRRCC1 / RFU, ARID1A / Fold change vs veh, ARID1A / RFU, ZNF146 / Fold change vs veh, ZNF146 / RFU, ZNF330 / Fold change vs veh, ZNF330 / RFU, GPN3 / Fold change vs veh, GPN3 / RFU, C9orf123 / Fold change vs veh, C9orf123 / RFU, N4BP2L2 / Fold change vs veh, N4BP2L2 / RFU, ARFIP1 / Fold change vs veh, ARFIP1 / RFU, FAM179B / Fold change vs veh, FAM179B / RFU, BCL10 / Fold change vs veh, BCL10 / RFU, UHRF1BP1L / Fold change vs veh, UHRF1BP1L / RFU, BET1 / Fold change vs veh, BET1 / RFU, CNOT2 / Fold change vs veh, CNOT2 / RFU, ZNF268 / Fold change vs veh, ZNF268 / Fold change vs veh, ZNF507 / RFU, DGCR2 / Fold change vs veh, DGCR2 / RFU, WDSUB1 / Fold change vs veh, WDSUB1 / Fold change vs veh, HSP90B1 /// MIR3652 / RFU, ADSS / Fold change vs veh, ADSS / RFU, GK / Fold change vs veh, GK / RFU, ZNF148 / Fold change vs veh, ZNF148 / RFU, TAF9 / Fold change vs veh, TAF9 / RFU, SLC1A5 / Fold change vs veh, SLC1A5 / RFU, SLMO2 / Fold change vs veh, SLMO2 / RFU, ABCC4 / Fold change vs veh, ABCC4 / RFU, LOC101060439 /// RAP1B / Fold change vs veh, LOC101060439 /// RAP1B / RFU, RFX7 / Fold change vs veh, RFX7 / RFU, GTPBP10 / Fold change vs veh, GTPBP10 / RFU, CNEP1R1 / Fold change vs veh, CNEP1R1 / RFU, BIVM-ERCC5 /// ERCC5 / Fold change vs veh, BIVM-ERCC5 /// ERCC5 / RFU, ILF3 / Fold change vs veh, ILF3 / RFU 11762660_at / Fold change /veh 11762660_at / RFU VCAN (11757783_s_at) / Fold change /veh VCAN (11757783_s_at) / RFU DDX43 (11728927_at) / Fold change /veh DDX43 (11728927_at) / RFU KRT8 (11758188_x_at) / Fold change /veh KRT8 (11758188_x_at) / RFU NKD1 (11759106_at) / Fold change /veh NKD1 (11759106_at) / RFU SRD5A1 (11742802_a_at) / Fold change /veh SRD5A1 (11742802_a_at) / RFU TPSAB1 /// TPSB2 (11721975_s_at) / Fold change /veh TPSAB1 /// TPSB2 (11721975_s_at) / RFU GSTM3 (11746129_a_at) / Fold change /veh GSTM3 (11746129_a_at) / RFU IL23R (11737362_x_at) / Fold change /veh IL23R (11737362_x_at) / RFU TMEM51 (11727254_a_at) / Fold change /veh TMEM51 (11727254_a_at) / RFU PIWIL2 (11732686_x_at) / Fold change /veh PIWIL2 (11732686_x_at) / RFU ORM1 (11744905_x_at) / Fold change /veh ORM1 (11744905_x_at) / RFU CCDC152 (11743942_at) / Fold change /veh CCDC152 (11743942_at) / RFU ECM1 (11717891_a_at) / Fold change /veh ECM1 (11717891_a_at) / RFU IL23R (11748794_a_at) / Fold change /veh IL23R (11748794_a_at) / RFU TNFAIP8L3 (11732012_x_at) / Fold change /veh TNFAIP8L3 (11732012_x_at) / RFU MBOAT4 (11741988_at) / Fold change /veh MBOAT4 (11741988_at) / RFU 11764193_at / Fold change /veh 11764193_at / RFU TMEM53 (11763286_at) / Fold change /veh TMEM53 (11763286_at) / RFU MAGEB2 (11727129_at) / Fold change /veh MAGEB2 (11727129_at) / RFU TMEM200A (11744735_a_at) / Fold change /veh TMEM200A (11744735_a_at) / RFU CCDC152 (11751479_a_at) / Fold change /veh CCDC152 (11751479_a_at) / RFU FAM211A (11726209_a_at) / Fold change /veh FAM211A (11726209_a_at) / RFU RGS16 (11746705_a_at) / Fold change /veh RGS16 (11746705_a_at) / RFU VCAN (11755009_s_at) / Fold change /veh VCAN (11755009_s_at) / RFU RHOB (11743442_s_at) / Fold change /veh RHOB (11743442_s_at) / RFU RGS16 (11720943_a_at) / Fold change /veh RGS16 (11720943_a_at) / RFU RGS16 (11720944_at) / Fold change /veh RGS16 (11720944_at) / RFU, VPS4B / Fold change vs veh, VPS4B / RFU, CREB1 / Fold change vs veh, CREB1 / RFU, DNAJC13 / Fold change vs veh, DNAJC13 / RFU, GNAQ / Fold change vs veh, GNAQ / RFU, CDK5R1 / Fold change vs veh, CDK5R1 / RFU, ZRANB3 / Fold change vs veh, ZRANB3 / RFU, CUL4A / Fold change vs veh, CUL4A / RFU, CCNY / Fold change vs veh, CCNY / RFU, UFL1 / Fold change vs veh, UFL1 / RFU, COG3 / Fold change vs veh, COG3 / RFU, DIAPH2 / Fold change vs veh, DIAPH2 / RFU, SKA2 / Fold change vs veh, SKA2 / RFU, AFF3 / Fold change vs veh, AFF3 / RFU, LMF1 / Fold change vs veh, LMF1 / RFU, IPO11 / Fold change vs veh, IPO11 / RFU, DFFB / Fold change vs veh, DFFB / RFU, FOXP1 / Fold change vs veh, FOXP1 / RFU, CARD8 / Fold change vs veh, CARD8 / RFU, STRN3 / Fold change vs veh, STRN3 / RFU, ADK / Fold change vs veh, ADK / RFU, RASSF2 / Fold change vs veh, RASSF2 / RFU, WIPF1 / Fold change vs veh, WIPF1 / RFU, LARP1B / Fold change vs veh, LARP1B / RFU, RASA1 / Fold change vs veh, RASA1 / RFU, RB1 / Fold change vs veh, RB1 / RFU, PPFIA1 / Fold change vs veh, PPFIA1 / RFU, MAT2A / Fold change vs veh, MAT2A / RFU, CCT5 / Fold change vs veh, CCT5 / RFU, WDR92 / Fold change vs veh, WDR92 / RFU, CUX1 / Fold change vs veh, CUX1 / RFU, TTC7A / Fold change vs veh, TTC7A / RFU, TMEM135 / Fold change vs veh, TMEM135 / RFU, DEPTOR / Fold change vs veh, DEPTOR / RFU, CPM / Fold change vs veh, CPM / RFU, DNAJB6 / Fold change vs veh, DNAJB6 / RFU, CACNA2D3 / Fold change vs veh, CACNA2D3 / RFU, DTX4 / Fold change vs veh, DTX4 / RFU, TFCP2 / Fold change vs veh, TFCP2 / RFU, GMCL1 /// GMCL1P1 / Fold change vs veh, GMCL1 /// GMCL1P1 / RFU, AEBP2 / Fold change vs veh, AEBP2 / RFU, SNHG1 /// SNORD22 /// SNORD25 /// SNORD26 /// SNORD27 /// SNORD28 /// SNORD29 /// SNORD31 / Fold change vs veh, SNHG1 /// SNORD22 /// SNORD25 /// SNORD26 /// SNORD27 /// SNORD28 /// SNORD29 /// SNORD31 / Fold change (Aza/veh), C12orf56 (ProbeSet 11735607_a_at) / Fold change (ACY-1035/veh), C12orf56 (ProbeSet 11735607_a_at) / Fold change (Aza/veh), FGFR1OP (ProbeSet 11751329_s_at) / Fold change (ACY-1035/veh), FGFR1OP (ProbeSet 11751329_s_at) / Fold change (Aza/veh), VPS36 (ProbeSet 11739960_a_at) / Fold change (ACY-1035/veh), VPS36 (ProbeSet 11739960_a_at) / RFU SYPL1 (11715823_x_at) / Fold change /veh SYPL1 (11715823_x_at) / RFU IGFBP7 (11715501_s_at) / Fold change /veh IGFBP7 (11715501_s_at) / RFU REEP3 (11722064_at) / Fold change /veh REEP3 (11722064_at) / RFU IGLL1 (11728026_x_at) / Fold change /veh IGLL1 (11728026_x_at): dose or concentration left out as unconfirmed
Conditions: ProbeSet 11758779_at; LIST B

Nc1ncn([C@@H]2O[C@H](CO)[C@@H](O)[C@H]2O)c(=O)n1 [azacitidine]
Fold change vs veh, TMEM50B: 0.94
